# Measured values published in patent US11000033B2, “Ketone or oxime compound, and herbicide” (NISSAN CHEMICAL CORPORATION, priority 2014, dated 2021).
# Legend:
# Assay type in all cases: in vivo
# rice = experiment: Test Example 4: effect on crop by soil treatment (symbol b); conditions: application herbicide amount 320 g/ha
# Procedure, shortened: (§1)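 Soil-treatment setup: crop and weed seeds were spot-sown into sterilized diluvial soil, then buried beneath approximately 1.5 cm of it, and the boxes were housed in a 25–30° C. greenhouse.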
# rice plant = experiment: Test Example 5: effect on crop by foliage application, plastic box (symbol b); conditions: 320 g/ha, 3 weeks after application
# Procedure, shortened: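 Greenhouse culture at 25° C. to 30° C. followed spot-like sowing into sterilized diluvial soil, with seed covered by roughly 1.5 cm of soil.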
# Avena fatua = experiment: Test Example 4: herbicidal effect by soil treatment (symbol I); conditions: application herbicide amount 320 g/ha
# Procedure, shortened: (§2)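 Seeds were sown in sterilized diluvial soil, covered with about 1.5 cm of soil, and the soil surface was sprayed with a water-diluted emulsion of the compound at a predetermined rate. Plants grew in a greenhouse at 25° C. to 30° C.; effects were scored visually 3 weeks after application.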
# Digitaria ciliaris = experiment: Test Example 4: herbicidal effect by soil treatment (symbol F); conditions: application herbicide amount 320 g/ha
# Procedure, shortened: as §2
# Setaria viridis = experiment: Test Example 4: herbicidal effect by soil treatment (symbol G); conditions: application herbicide amount 320 g/ha
# Procedure, shortened: as §2
# wheat = experiment: Test Example 4: effect on crop by soil treatment (symbol e); conditions: application herbicide amount 320 g/ha
# Procedure, shortened: as §1
# Leptochloa chinensis = experiment: Test Example 3: herbicidal effect by foliage application, Wagner pot (symbol D); conditions: application herbicide amount 320 g/ha, Table 24
# Procedure, shortened: (§3)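 Scoring took place 3 weeks after application, using fixed criteria. Plants had been raised from seed for 14 days at 25 to 30 °C in submerged alluvial soil before a diluted emulsion of the test compound was sprayed uniformly on the leaves.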
# [1] = system: Echinochloa crus-galli var. crus-galli; experiment: Test Example 3: herbicidal effect by foliage application, Wagner pot (symbol H); conditions: application herbicide amount 320 g/ha, Table 24
# Procedure, shortened: as §3
# Veronica persica = experiment: Test Example 4: herbicidal effect by soil treatment (symbol R); conditions: application herbicide amount 320 g/ha
# Procedure, shortened: as §2
# Chenopodium album = experiment: Test Example 5: herbicidal effect by foliage application, plastic box (symbol O); conditions: 320 g/ha, 3 weeks after application
# Procedure, shortened: (§4)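 Emulsion formulation, diluted with water to the intended rate, was applied uniformly to leaves by small sprayer. Recipients were 14-day greenhouse-grown seedlings (25° C. to 30° C.). Assessment followed at 3 weeks.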
# Scirpus juncoides = experiment: Test Example 2: herbicidal activity, application during weed generation in submerged conditions (symbol B); conditions: Table 23; application herbicide amount 320 g/ha; grade 0-5 by criteria of Test Example 1
# Procedure, shortened: (§5)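 Read-out: herbicidal effect on each species rated on a visual scale 3 weeks after treatment. Plants were raised together from seed in flooded alluvial soil (4 cm water) at 25° C. to 30° C. and treated at one to two leaves by water-surface application of diluted emulsion.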
# [2] = system: Echinochloa oryzacola Vasing.; experiment: Test Example 2: herbicidal activity, application during weed generation in submerged conditions (symbol A); conditions: Table 23; application herbicide amount 320 g/ha; grade 0-5 by criteria of Test Example 1
# Procedure, shortened: as §5
# Lolium multiflorum Lam. = experiment: Test Example 4: herbicidal effect by soil treatment (symbol K); conditions: application herbicide amount 320 g/ha
# Procedure, shortened: as §2
# Monochoria vaginalis = experiment: Test Example 2: herbicidal activity, application during weed generation in submerged conditions (symbol C); conditions: Table 23; application herbicide amount 320 g/ha; grade 0-5 by criteria of Test Example 1
# Procedure, shortened: as §5
# Amaranthus retroflexus = experiment: Test Example 5: herbicidal effect by foliage application, plastic box (symbol N); conditions: 320 g/ha, 3 weeks after application
# Procedure, shortened: as §4
# Alopecurus myosuroides [3] = experiment: Test Example 4: herbicidal effect by soil treatment (symbol J); conditions: application herbicide amount 320 g/ha
# Procedure, shortened: as §2
# Alopecurus myosuroides [4] = experiment: Test Example 5: herbicidal effect by foliage application, plastic box (symbol J); conditions: 320 g/ha, 3 weeks after application
# Procedure, shortened: as §4
# [5] = system: Echinochloa crus-galli var. crus-galli; experiment: Test Example 5: herbicidal effect by foliage application, plastic box (symbol H); conditions: 320 g/ha, 3 weeks after application
# Procedure, shortened: as §4
# Stellaria media [6] = experiment: Test Example 4: herbicidal effect by soil treatment (symbol P); conditions: application herbicide amount 320 g/ha
# Procedure, shortened: as §2
# Stellaria media [7] = experiment: Test Example 5: herbicidal effect by foliage application, plastic box (symbol P); conditions: 320 g/ha, 3 weeks after application
# Procedure, shortened: as §4
structure (smiles),measurement,setting,value
CON=C(CC1CC(O)=C(c2c(C)cc(C)cc2OC)C1=O)C1CC1 (mixture of isomers) [13-002],"b: directly sowed rice plant, effect on crop grade",rice,5 (Herbicidal ratio of 90% or more (almost completely withered))
same,"b: directly sowed rice plant, effect on crop grade",rice plant,5 (Herbicidal ratio of 90% or more (almost completely withered))
same,"I: Avena fatua, herbicidal effect grade",Avena fatua,4 (Herbicidal ratio of 70% or higher and lower than 90%)
same,"F: Digitaria ciliaris, herbicidal effect grade",Digitaria ciliaris,5 (Herbicidal ratio of 90% or more (almost completely withered))
same,"G: Setaria viridis, herbicidal effect grade",Setaria viridis,5 (Herbicidal ratio of 90% or more (almost completely withered))
same,"e: wheat, effect on crop grade",wheat,3 (Herbicidal ratio of 40% or higher and lower than 70%)
same,D (Leptochloa chinensis) herbicidal effect grade,Leptochloa chinensis,5 (Herbicidal ratio of 90% or more (almost completely withered))
same,H (Echinochloa crus-galli var. crus-galli) herbicidal effect grade,[1],5 (Herbicidal ratio of 90% or more (almost completely withered))
same,"R: Veronica persica, herbicidal effect grade",Veronica persica,0 (Herbicidal ratio of 5% or lower (almost no effect))
same,"O: Chenopodium album, herbicidal effect grade",Chenopodium album,5 (Herbicidal ratio of 90% or more (almost completely withered))
same,"Herbicidal effect grade, B: Scirpus juncoides",Scirpus juncoides,5 (Herbicidal ratio of 90% or more (almost completely withered))
same,"Herbicidal effect grade, A: Echinochloa oryzacola Vasing.",[2],5 (Herbicidal ratio of 90% or more (almost completely withered))
same,"K: Lolium multiflorum Lam., herbicidal effect grade",Lolium multiflorum Lam.,5 (Herbicidal ratio of 90% or more (almost completely withered))
same,"Herbicidal effect grade, C: Monochoria vaginalis",Monochoria vaginalis,2 (Herbicidal ratio of 20% or higher and lower than 40%)
same,"N: Amaranthus retroflexus, herbicidal effect grade",Amaranthus retroflexus,0 (Herbicidal ratio of 5% or lower (almost no effect))
same,"J: Alopecurus myosuroides, herbicidal effect grade",Alopecurus myosuroides [3],4 (Herbicidal ratio of 70% or higher and lower than 90%)
same,"J: Alopecurus myosuroides, herbicidal effect grade",Alopecurus myosuroides [4],5 (Herbicidal ratio of 90% or more (almost completely withered))
same,"H: Echinochloa crus-galli var. crus-galli, herbicidal effect grade",[5],5 (Herbicidal ratio of 90% or more (almost completely withered))
same,"P: Stellaria media, herbicidal effect grade",Stellaria media [6],0 (Herbicidal ratio of 5% or lower (almost no effect))
same,"P: Stellaria media, herbicidal effect grade",Stellaria media [7],3 (Herbicidal ratio of 40% or higher and lower than 70%)
CCC(CC1CC(O)=C(c2c(C)cc(C)cc2OC)C1=O)=NOC (mixture of isomers) [13-003],"b: directly sowed rice plant, effect on crop grade",rice,5 (Herbicidal ratio of 90% or more (almost completely withered))
same,"b: directly sowed rice plant, effect on crop grade",rice plant,5 (Herbicidal ratio of 90% or more (almost completely withered))
same,"I: Avena fatua, herbicidal effect grade",Avena fatua,1 (Herbicidal ratio of 5% or higher and lower than 20%)
same,"F: Digitaria ciliaris, herbicidal effect grade",Digitaria ciliaris,5 (Herbicidal ratio of 90% or more (almost completely withered))
same,"G: Setaria viridis, herbicidal effect grade",Setaria viridis,5 (Herbicidal ratio of 90% or more (almost completely withered))
same,"e: wheat, effect on crop grade",wheat,0 (Herbicidal ratio of 5% or lower (almost no effect))
same,D (Leptochloa chinensis) herbicidal effect grade,Leptochloa chinensis,5 (Herbicidal ratio of 90% or more (almost completely withered))
same,H (Echinochloa crus-galli var. crus-galli) herbicidal effect grade,[1],5 (Herbicidal ratio of 90% or more (almost completely withered))
same,"R: Veronica persica, herbicidal effect grade",Veronica persica,0 (Herbicidal ratio of 5% or lower (almost no effect))
same,"O: Chenopodium album, herbicidal effect grade",Chenopodium album,0 (Herbicidal ratio of 5% or lower (almost no effect))
same,"Herbicidal effect grade, B: Scirpus juncoides",Scirpus juncoides,4 (Herbicidal ratio of 70% or higher and lower than 90%)
same,"Herbicidal effect grade, A: Echinochloa oryzacola Vasing.",[2],5 (Herbicidal ratio of 90% or more (almost completely withered))
same,"K: Lolium multiflorum Lam., herbicidal effect grade",Lolium multiflorum Lam.,5 (Herbicidal ratio of 90% or more (almost completely withered))
same,"Herbicidal effect grade, C: Monochoria vaginalis",Monochoria vaginalis,3 (Herbicidal ratio of 40% or higher and lower than 70%)
same,"N: Amaranthus retroflexus, herbicidal effect grade",Amaranthus retroflexus,0 (Herbicidal ratio of 5% or lower (almost no effect))
same,"J: Alopecurus myosuroides, herbicidal effect grade",Alopecurus myosuroides [3],5 (Herbicidal ratio of 90% or more (almost completely withered))
same,"J: Alopecurus myosuroides, herbicidal effect grade",Alopecurus myosuroides [4],5 (Herbicidal ratio of 90% or more (almost completely withered))
same,"H: Echinochloa crus-galli var. crus-galli, herbicidal effect grade",[5],5 (Herbicidal ratio of 90% or more (almost completely withered))
same,"P: Stellaria media, herbicidal effect grade",Stellaria media [6],0 (Herbicidal ratio of 5% or lower (almost no effect))
same,"P: Stellaria media, herbicidal effect grade",Stellaria media [7],1 (Herbicidal ratio of 5% or higher and lower than 20%)
CCC(CC1CC(O)=C(c2c(C)cc(-c3ccccc3)cc2OC)C1=O)=NOC (mixture of isomers) [13-004],"b: directly sowed rice plant, effect on crop grade",rice,5 (Herbicidal ratio of 90% or more (almost completely withered))
same,"b: directly sowed rice plant, effect on crop grade",rice plant,5 (Herbicidal ratio of 90% or more (almost completely withered))
same,"I: Avena fatua, herbicidal effect grade",Avena fatua,3 (Herbicidal ratio of 40% or higher and lower than 70%)
same,"F: Digitaria ciliaris, herbicidal effect grade",Digitaria ciliaris,5 (Herbicidal ratio of 90% or more (almost completely withered))
same,"G: Setaria viridis, herbicidal effect grade",Setaria viridis,5 (Herbicidal ratio of 90% or more (almost completely withered))
same,"e: wheat, effect on crop grade",wheat,5 (Herbicidal ratio of 90% or more (almost completely withered))
same,D (Leptochloa chinensis) herbicidal effect grade,Leptochloa chinensis,5 (Herbicidal ratio of 90% or more (almost completely withered))
same,H (Echinochloa crus-galli var. crus-galli) herbicidal effect grade,[1],5 (Herbicidal ratio of 90% or more (almost completely withered))
same,"R: Veronica persica, herbicidal effect grade",Veronica persica,3 (Herbicidal ratio of 40% or higher and lower than 70%)
same,"O: Chenopodium album, herbicidal effect grade",Chenopodium album,4 (Herbicidal ratio of 70% or higher and lower than 90%)
same,"Herbicidal effect grade, B: Scirpus juncoides",Scirpus juncoides,5 (Herbicidal ratio of 90% or more (almost completely withered))
same,"Herbicidal effect grade, A: Echinochloa oryzacola Vasing.",[2],5 (Herbicidal ratio of 90% or more (almost completely withered))
same,"K: Lolium multiflorum Lam., herbicidal effect grade",Lolium multiflorum Lam.,5 (Herbicidal ratio of 90% or more (almost completely withered))
same,"Herbicidal effect grade, C: Monochoria vaginalis",Monochoria vaginalis,4 (Herbicidal ratio of 70% or higher and lower than 90%)
same,"N: Amaranthus retroflexus, herbicidal effect grade",Amaranthus retroflexus,0 (Herbicidal ratio of 5% or lower (almost no effect))
same,"J: Alopecurus myosuroides, herbicidal effect grade",Alopecurus myosuroides [3],5 (Herbicidal ratio of 90% or more (almost completely withered))
same,"J: Alopecurus myosuroides, herbicidal effect grade",Alopecurus myosuroides [4],5 (Herbicidal ratio of 90% or more (almost completely withered))
same,"H: Echinochloa crus-galli var. crus-galli, herbicidal effect grade",[5],5 (Herbicidal ratio of 90% or more (almost completely withered))
same,"P: Stellaria media, herbicidal effect grade",Stellaria media [6],1 (Herbicidal ratio of 5% or higher and lower than 20%)
same,"P: Stellaria media, herbicidal effect grade",Stellaria media [7],2 (Herbicidal ratio of 20% or higher and lower than 40%)
